Source: the supplement of paper PMC10307832

Columns and labels:
Test in all cases: relative viability (nuclei count vs DMSO), 5 days (fraction); higher = more cells survive
XMD13-2 + OSI-027 = compound: C1CC1C(=O)NC2=NNC3=C2C=CC(=C3)C4=CC(=CC=C4)C(=O)NC5CC5 [XMD13-2] + COc1cccc2cc(-c3nc([C@H]4CC[C@H](C(=O)O)CC4)n4ncnc(N)c34)[nH]c12 [OSI-027] (partner 0.5 µM)
In short: (§1)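 The day after seeding in 1536-well plates, lung cancer cell lines were treated by pin tool with a single drug, or with a fixed anchor-drug dose together with five library-drug doses (not always all listed) in √10 steps. After 5 days, a combined fix-and-stain solution (final 0.05% Triton X-100, 1% formaldehyde, 1 ug/ml Hoechst) was added. Nuclei counted on 4× images gave relative viability as treated counts over vehicle counts, reported as the median of duplicate plates.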

XMD13-2 + Tozasertib = compound: C1CC1C(=O)NC2=NNC3=C2C=CC(=C3)C4=CC(=CC=C4)C(=O)NC5CC5 [XMD13-2] + Cc1cc(Nc2cc(N3CCN(C)CC3)nc(Sc3ccc(NC(=O)C4CC4)cc3)n2)n[nH]1 [Tozasertib] (partner 0.1 µM)
In short: as §1

Dasatinib + Tozasertib = compound: Cc1nc(Nc2ncc(C(=O)Nc3c(C)cccc3Cl)s2)cc(N2CCN(CCO)CC2)n1 [Dasatinib] + Cc1cc(Nc2cc(N3CCN(C)CC3)nc(Sc3ccc(NC(=O)C4CC4)cc3)n2)n[nH]1 [Tozasertib] (partner 0.1 µM)
In short: as §1

Dasatinib + Alpelisib = compound: Cc1nc(Nc2ncc(C(=O)Nc3c(C)cccc3Cl)s2)cc(N2CCN(CCO)CC2)n1 [Dasatinib] + Cc1nc(NC(=O)N2CCC[C@H]2C(N)=O)sc1-c1ccnc(C(C)(C)C(F)(F)F)c1 [Alpelisib] (partner 2 µM)
In short: as §1

Cell Line | relative viability (XMD13-2 + OSI-027; first compound 0.05 µM) | relative viability (XMD13-2 + OSI-027; first compound 0.1581 µM) | relative viability (XMD13-2 + OSI-027; first compound 0.5 µM) | relative viability (XMD13-2 + OSI-027; first compound 1.581 µM) | relative viability (XMD13-2 + OSI-027; first compound 5 µM) | relative viability (XMD13-2 + Tozasertib; first compound 0.05 µM) | relative viability (XMD13-2 + Tozasertib; first compound 0.1581 µM) | relative viability (XMD13-2 + Tozasertib; first compound 0.5 µM) | relative viability (XMD13-2 + Tozasertib; first compound 1.581 µM) | relative viability (XMD13-2 + Tozasertib; first compound 5 µM) | relative viability (Dasatinib + Tozasertib; first compound 0.005 µM) | relative viability (Dasatinib + Tozasertib; first compound 0.01581 µM) | relative viability (Dasatinib + Tozasertib; first compound 0.05 µM) | relative viability (Dasatinib + Tozasertib; first compound 0.1581 µM) | relative viability (Dasatinib + Tozasertib; first compound 0.5 µM) | relative viability (Dasatinib + Alpelisib; first compound 0.005 µM) | relative viability (Dasatinib + Alpelisib; first compound 0.01581 µM) | relative viability (Dasatinib + Alpelisib; first compound 0.05 µM) | relative viability (Dasatinib + Alpelisib; first compound 0.1581 µM) | relative viability (Dasatinib + Alpelisib; first compound 0.5 µM)
NCI-H2170 | 0.748 | 0.703 | 0.744 | 0.559 | 0.704 | 0.646 | 0.737 | 0.774 | 0.672 | 0.719 | 0.698 | 0.622 | 0.722 | 0.564 | 0.247 | 0.738 | 0.649 | 0.644 | 0.449 | 0.382
NCI-H2126 | 0.8 | 0.665 | 0.666 | 0.702 | 0.837 | 0.953 | 0.879 | 0.81 | 0.861 | 0.985 | 0.832 | 0.732 | 0.773 | 0.654 | 0.348 | 0.761 | 0.643 | 0.65 | 0.518 | 0.339
HCC-827 | 0.911 | 0.747 | 0.708 | 0.753 | 0.675 | 0.428 | 0.409 | 0.427 | 0.401 | 0.386 | 0.457 | 0.409 | 0.399 | 0.177 | 0.101 | 1.01 | 0.737 | 0.757 | 0.374 | 0.123
ABC-1 | 0.693 | 0.486 | 0.572 | 0.427 | 0.368 | 0.187 | 0.2 | 0.163 | 0.213 | 0.205 | 0.174 | 0.217 | 0.172 | 0.15 | 0.154 | 0.978 | 0.776 | 0.888 | 0.714 | 0.571
NCI-H650 | 0.522 | 0.512 | 0.599 | 0.474 | 0.522 | 0.783 | 0.748 | 0.781 | 0.716 | 0.723 | 0.705 | 0.665 | 0.755 | 0.619 | 0.42 | 1.16 | 1.05 | 1.04 | 0.726 | 0.428
BEN | 0.309 | 0.276 | 0.312 | 0.291 | 0.327 | 0.512 | 0.436 | 0.491 | 0.488 | 0.42 | 0.516 | 0.412 | 0.489 | 0.415 | 0.406 | 0.857 | 0.536 | 0.611 | 0.342 | 0.365
NCI-H23 | 0.761 | 0.544 | 0.593 | 0.411 | 0.783 | 0.325 | 0.382 | 0.397 | 0.644 | 0.355 | 0.318 | 0.309 | 0.347 | 0.302 | 0.318 | 0.597 | 0.549 | 0.615 | 0.403 | 0.323
NCI-H1975 | 0.829 | 0.776 | 0.824 | 0.786 | 0.774 | 0.967 | 0.739 | 0.735 | 0.631 | 0.72 | 0.692 | 0.677 | 0.648 | 0.377 | 0.245 | 0.579 | 0.437 | 0.361 | 0.21 | 0.199
COR-L 105 | 0.83 | 0.658 | 0.668 | 0.66 | 0.707 | 0.374 | 0.385 | 0.339 | 0.376 | 0.425 | 0.375 | 0.299 | 0.332 | 0.228 | 0.208 | 0.671 | 0.486 | 0.715 | 0.452 | 0.209
LK-2 | 0.236 | 0.151 | 0.191 | 0.239 | 0.216 | 0.187 | 0.169 | 0.173 | 0.18 | 0.149 | 0.16 | 0.15 | 0.141 | 0.173 | 0.148 | 1.04 | 0.764 | 0.449 | 0.312 | 0.275
EKVX | 0.832 | 0.68 | 0.78 | 0.682 | 0.863 | 0.468 | 0.414 | 0.405 | 0.394 | 0.45 | 0.372 | 0.279 | 0.303 | 0.214 | 0.119 | 0.774 | 0.637 | 0.651 | 0.557 | 0.145
NCI-H2009 | 0.69 | 0.563 | 0.815 | 0.634 | 0.66 | 0.849 | 0.7 | 0.798 | 0.728 | 0.749 | 0.738 | 0.65 | 0.679 | 0.4 | 0.179 | 1.15 | 0.956 | 1.04 | 0.88 | 0.204
NCI-H838 | 0.432 | 0.402 | 0.339 | 0.398 | 0.437 | 0.277 | 0.27 | 0.263 | 0.293 | 0.247 | 0.279 | 0.292 | 0.245 | 0.179 | 0.2 | 0.82 | 0.678 | 0.585 | 0.308 | 0.233
NCI-H2085 | 0.74 | 0.749 | 0.757 | 0.654 | 0.916 | 0.824 | 0.806 | 0.905 | 0.821 | 0.754 | 0.737 | 0.641 | 0.564 | 0.229 | 0.214 | 0.874 | 0.794 | 0.596 | 0.292 | 0.2
